{"source": "patent US20050227999A1", "about": "“Diarylamine derivatives as calcium channel blockers” (NeuroMed Technologies Inc., priority 2004, published 2005)", "key": {"[1]": {"target": "T1, rat brain N-type calcium channel subunits (α1B+α2δ+β1b cDNA subunits) (Rattus norvegicus, UniProt Q02294)", "T1 construct": "expressed in transfected cells; host or cells: HEK 293", "assay": "N-type calcium channel block, whole cell patch clamp in transfected HEK 293 cells", "assay_type": "cell-based", "settings": "holding potential −80 mV to +10 mV", "protocol": "N-type calcium channel blocking activity was assayed in human embryonic kidney cells, HEK 293, stably transfected with the rat brain N-type calcium channel subunits (α1B+α2δ+β1b cDNA subunits). Alternatively, N-type calcium channels (α1B+α2δ+β1b cDNA subunits), L-type channels (α1C+δ+β1b cDNA subunits) and P/Q-type channels (α1A+α2δ+β1b cDNA subunits) were transiently expressed in HEK 293 cells. Briefly, cells were cultured in Dulbecco's modified eagle medium (DMEM) supplemented with 10% fetal bovine serum, 200 U/ml penicillin and 0.2 mg/ml streptomycin at 37° C. with 5% CO2. At 85% confluency cells were split with 0.25% trypsin/l mM EDTA and plated at 10% confluency on glass coverslips. At 12 hours the medium was replaced and the cells transiently transfected using a standard calcium phosphate protocol and the appropriate calcium channel cDNA's. Fresh DMEM was supplied and the cells transferred to 28° C./5% CO2. Cells were incubated for 1 to 2 days before cell recording.\nWhole cell patch clamp experiments were performed using an Axopatch 200B amplifier (Axon Instruments, Burlingame, Calif.) linked to a personal computer equipped with PCLAMP software. The external and internal recording solutions contained, respectively, 5 mM BaCl2, 10 mM MgCl2, 10 mM HEPES, 40 mM TEACl, 10 mM glucose, 87.5 mM CsCl (pH 7.2) and 108 mM CsMS, 4 mM MgCl2, 9 mM EGTA, 9 mM HEPES (pH 7.2). Currents were typically elicited from a holding potential of −80 mV to +10 mV using Clampex software (Axon Instruments). Typically, currents were first elicited with low frequency stimulation (0.067 Hz) and allowed to stabilize prior to application of the compounds. The compounds were then applied during the low frequency pulse trains for two to three minutes to assess tonic block, and subsequently the pulse frequency was increased to 0.2 Hz to assess frequency dependent block. Data were analyzed using Clampfit (Axon Instruments) and SigmaPlot 4.0 (Jandel Scientific). […]"}, "[2]": {"target": "T2, human α1G T-type channels (Homo sapiens, UniProt O43497)", "T2 construct": "expressed in transfected cells", "T2 sequence (O43497 whole entry)": "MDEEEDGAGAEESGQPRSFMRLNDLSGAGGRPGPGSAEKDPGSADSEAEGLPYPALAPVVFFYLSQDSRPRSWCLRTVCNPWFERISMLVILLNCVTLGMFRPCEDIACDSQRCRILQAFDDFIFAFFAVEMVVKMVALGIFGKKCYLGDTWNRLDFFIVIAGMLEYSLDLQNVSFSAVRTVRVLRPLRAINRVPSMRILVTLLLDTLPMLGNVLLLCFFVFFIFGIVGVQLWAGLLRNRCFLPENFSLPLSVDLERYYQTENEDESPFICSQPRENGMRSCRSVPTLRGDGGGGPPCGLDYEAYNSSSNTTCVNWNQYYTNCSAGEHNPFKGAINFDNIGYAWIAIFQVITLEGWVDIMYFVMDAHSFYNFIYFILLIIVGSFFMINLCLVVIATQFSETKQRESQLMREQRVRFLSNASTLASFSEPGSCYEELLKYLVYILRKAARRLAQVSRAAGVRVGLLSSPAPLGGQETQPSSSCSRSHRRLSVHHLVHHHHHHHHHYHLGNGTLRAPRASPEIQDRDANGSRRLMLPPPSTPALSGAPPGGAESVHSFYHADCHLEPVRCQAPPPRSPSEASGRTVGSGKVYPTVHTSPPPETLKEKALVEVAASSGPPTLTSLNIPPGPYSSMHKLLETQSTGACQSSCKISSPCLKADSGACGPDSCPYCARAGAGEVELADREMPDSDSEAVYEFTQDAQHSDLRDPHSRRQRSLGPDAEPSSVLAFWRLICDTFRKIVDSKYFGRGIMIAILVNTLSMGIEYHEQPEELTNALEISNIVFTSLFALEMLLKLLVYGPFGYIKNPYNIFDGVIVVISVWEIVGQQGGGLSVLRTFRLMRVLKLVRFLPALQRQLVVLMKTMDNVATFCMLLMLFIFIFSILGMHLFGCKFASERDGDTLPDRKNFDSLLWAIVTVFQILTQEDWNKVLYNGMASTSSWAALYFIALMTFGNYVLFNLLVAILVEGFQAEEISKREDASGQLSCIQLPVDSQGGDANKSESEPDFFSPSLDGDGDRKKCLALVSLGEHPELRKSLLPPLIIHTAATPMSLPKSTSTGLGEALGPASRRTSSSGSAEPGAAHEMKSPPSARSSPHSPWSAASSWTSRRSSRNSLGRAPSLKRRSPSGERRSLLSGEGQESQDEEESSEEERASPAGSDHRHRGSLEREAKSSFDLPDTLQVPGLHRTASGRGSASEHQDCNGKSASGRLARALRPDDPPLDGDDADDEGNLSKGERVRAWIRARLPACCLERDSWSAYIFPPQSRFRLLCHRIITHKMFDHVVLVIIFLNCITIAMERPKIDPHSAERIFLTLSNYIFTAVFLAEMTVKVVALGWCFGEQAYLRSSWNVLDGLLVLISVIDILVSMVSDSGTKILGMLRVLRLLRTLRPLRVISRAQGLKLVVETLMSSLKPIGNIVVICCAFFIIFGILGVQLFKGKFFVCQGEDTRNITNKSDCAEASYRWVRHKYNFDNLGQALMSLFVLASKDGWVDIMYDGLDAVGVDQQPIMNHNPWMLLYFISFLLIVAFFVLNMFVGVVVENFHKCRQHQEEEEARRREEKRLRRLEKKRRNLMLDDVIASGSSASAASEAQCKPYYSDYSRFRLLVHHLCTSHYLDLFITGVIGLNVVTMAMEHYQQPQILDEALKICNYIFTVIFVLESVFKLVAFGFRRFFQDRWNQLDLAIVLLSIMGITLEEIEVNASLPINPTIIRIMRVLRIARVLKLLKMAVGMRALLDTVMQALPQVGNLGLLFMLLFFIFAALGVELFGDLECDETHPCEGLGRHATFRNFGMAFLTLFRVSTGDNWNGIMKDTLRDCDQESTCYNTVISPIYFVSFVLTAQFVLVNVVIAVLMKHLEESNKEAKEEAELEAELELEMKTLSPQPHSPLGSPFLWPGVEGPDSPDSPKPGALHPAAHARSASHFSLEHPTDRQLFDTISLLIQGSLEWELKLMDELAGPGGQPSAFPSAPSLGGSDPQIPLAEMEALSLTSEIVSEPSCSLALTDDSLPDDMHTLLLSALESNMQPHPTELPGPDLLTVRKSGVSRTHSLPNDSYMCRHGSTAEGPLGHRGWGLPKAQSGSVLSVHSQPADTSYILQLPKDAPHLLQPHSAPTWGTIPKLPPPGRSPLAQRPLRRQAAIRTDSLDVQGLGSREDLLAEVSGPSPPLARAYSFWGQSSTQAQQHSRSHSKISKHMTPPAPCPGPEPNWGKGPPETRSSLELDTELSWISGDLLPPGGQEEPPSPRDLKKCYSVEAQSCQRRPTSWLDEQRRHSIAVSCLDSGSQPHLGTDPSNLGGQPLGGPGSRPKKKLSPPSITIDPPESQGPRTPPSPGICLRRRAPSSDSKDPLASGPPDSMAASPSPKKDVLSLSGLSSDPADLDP", "assay": "T-type calcium channel block, patch clamp in HEK cell lines", "assay_type": "cell-based", "protocol": "Standard patch-clamp techniques were employed to identify blockers of T-type currents. Briefly, previously described HEK cell lines stably expressing human α1G T-type channels were used for all the recordings (passage #: 4-20, 37° C., 5% CO2). To obtain T-type currents, plastic dishes containing semi-confluent cells were positioned on the stage of a ZEISS AXIOVERT S100 microscope after replacing the culture medium with external solution (see below). Whole-cell patches were obtained using pipettes (borosilicate glass with filament, O.D.: 1.5 mm, I.D.: 0.86 mm, 10 cm length), fabricated on a SUTTER P-97 puller with resistance values of ˜5 MΩ (see below for internal solution).\nIn the non-inactivating protocol, the holding potential is set at −110 mV and with a pre-pulse at −100 mV for 1 second prior to the test pulse at 40 mV for 50 ms. […]\nTest compounds were dissolved in external solution, 0.1-0.01% DMSO. After ˜10 min rest, they were applied by gravity close to the cell using a WPI microfil tubing. The “non-inactivated” pre-pulse was used to examine the resting block of a compound. The “inactivated” protocol was employed to study voltage-dependent block. However, the initial data shown below were mainly obtained using the non-inactivated protocol only. IC50 values are shown for various compounds of the invention in Table 4."}, "[3]": {"settings": "low frequency stimulation 0.067 Hz (tonic block), read-out: IC50 @ 0.067 Hz"}, "[4]": {"settings": "pulse frequency 0.2 Hz (frequency dependent block), read-out: IC50 @ 0.2 Hz"}, "[5]": {"settings": "−80 mV (inactivation protocol, voltage-dependent block), read-out: IC50 - 80 mV"}, "[6]": {"settings": "−100 mV pre-pulse (non-inactivating protocol, resting block), read-out: IC50 - 100 mV"}, "[7]": {"settings": "−100 mV pre-pulse (non-inactivating protocol, resting block)"}}, "note": "pIC50: −log10 of the molar value. Like-named read-outs stand apart in the source and are kept apart here."}
{"smiles": "O=C(CN1CCN(C(c2ccccc2)c2ccc(Cl)cc2Cl)CC1)N(c1ccccc1)c1ccccc1", "note": "(stereo not shown) [Compound 17, 2-{4-[(2,4-Dichloro-phenyl)-phenyl-methyl]-piperazin-1-yl}-N,N-diphenyl-acetamide]", "values": [{"measurement": "pIC50", "setting": "[1]; [3]", "result": 6.08}, {"measurement": "pIC50", "setting": "[1]; [4]", "result": 6.29}, {"measurement": "pIC50", "setting": "[2]; [5]", "result": 7.54}, {"measurement": "pIC50", "setting": "[2]; [6]", "result": 6.93}]}
{"smiles": "O=C(CN1CCN(C(c2ccccc2)c2cccc(Cl)c2)CC1)N(c1ccccc1)c1ccccc1", "note": "(stereo not shown) [Compound 20, 2-{4-[(3-Chloro-phenyl)-phenyl-methyl]-piperazin-1-yl}-N,N-diphenyl-acetamide]", "values": [{"measurement": "pIC50", "setting": "[1]; [3]", "result": 6.47}, {"measurement": "pIC50", "setting": "[1]; [4]", "result": 6.49}, {"measurement": "pIC50", "setting": "[2]; [5]", "result": 7.48}, {"measurement": "pIC50", "setting": "[2]; [6]", "result": 6.94}]}
{"smiles": "CN1CCCC(CN2CCN(C(=O)CN(c3ccccc3)c3ccccc3)CC2)C1", "note": "(stereo not shown) [Compound 10, 2-Diphenylamino-1-[4-(1-methyl-piperidin-3-ylmethyl)-piperazin-1-yl]-ethanone]", "values": [{"measurement": "pIC50", "setting": "[1]; [3]", "result": 5.96}, {"measurement": "pIC50", "setting": "[1]; [4]", "result": 6.01}, {"measurement": "pIC50", "setting": "[2]; [5]", "result": 5.70}, {"measurement": "pIC50", "setting": "[2]; [6]", "result": 5.00}]}
{"smiles": "O=C(CN(c1ccccc1)c1ccccc1)N1CCN(C(c2ccccc2)c2ccccc2)CC1", "note": "[Compound 1, 1-(4-Benzhydryl-piperazin-1-yl)-2-diphenylamino-ethanone]", "values": [{"measurement": "pIC50", "setting": "[1]; [3]", "result": 5.18}, {"measurement": "pIC50", "setting": "[1]; [4]", "result": 5.18}, {"measurement": "pIC50", "setting": "[2]; [5]", "result": 6.29}, {"measurement": "pIC50", "setting": "[2]; [6]", "result": 5.87}]}
{"smiles": "O=C(CN1CCN(C(c2ccccc2)c2cccc(Cl)c2Cl)CC1)N(c1ccccc1)c1ccccc1", "note": "(stereo not shown) [Compound 22, 2-{4-[(2,3-Dichloro-phenyl)-phenyl-methyl]-piperazin-1-yl}-N,N-diphenyl-acetamide]", "values": [{"measurement": "pIC50", "setting": "[1]; [3]", "result": 6.52}, {"measurement": "pIC50", "setting": "[1]; [4]", "result": 6.62}, {"measurement": "pIC50", "setting": "[2]; [5]", "result": 7.80}, {"measurement": "pIC50", "setting": "[2]; [6]", "result": 7.09}]}
{"smiles": "O=C(CN(c1ccccc1)c1ccccc1)N1CCN(C(c2ccccc2)c2ccc(Cl)cc2)CC1", "note": "(stereo not shown) [Compound 4, 1-{4-[(4-Chloro-phenyl)-phenyl-methyl]-piperazin-1-yl}-2-diphenylamino-ethanone]", "values": [{"measurement": "pIC50", "setting": "[1]; [3]", "result": 6.26}, {"measurement": "pIC50", "setting": "[1]; [4]", "result": 6.30}, {"measurement": "pIC50", "setting": "[2]; [5]", "result": 6.13}, {"measurement": "pIC50", "setting": "[2]; [6]", "result": 5.42}]}
{"smiles": "CN1CCC(CN2CCN(CC(=O)N(c3ccccc3)c3ccccc3)CC2)CC1", "note": "[Compound 25, 2-[4-(1-Methyl-piperidin-4-ylmethyl)-piperazin-1-yl]-N,N-diphenyl-acetamide]", "values": [{"measurement": "pIC50", "setting": "[1]; [3]", "result": 6.34}, {"measurement": "pIC50", "setting": "[1]; [4]", "result": 6.34}, {"measurement": "pIC50", "setting": "[2]; [5]", "result": 5.43}, {"measurement": "pIC50", "setting": "[2]; [6]", "result": 5.24}]}
{"smiles": "O=C(CN1CCN(C(c2ccccc2)c2ccc(Cl)cc2)CC1)N(c1ccccc1)c1ccccc1", "note": "(stereo not shown) [Compound 19, 2-{4-[(4-Chloro-phenyl)-phenyl-methyl]-piperazin-1-yl}-N,N-diphenyl-acetamide]", "values": [{"measurement": "pIC50", "setting": "[1]; [3]", "result": 6.72}, {"measurement": "pIC50", "setting": "[1]; [4]", "result": 6.96}, {"measurement": "pIC50", "setting": "[2]; [5]", "result": 7.66}, {"measurement": "pIC50", "setting": "[2]; [6]", "result": 7.14}]}
{"smiles": "O=C(CN1CCN(C(c2ccccc2)c2ccccc2Cl)CC1)N(c1ccccc1)c1ccccc1", "note": "(stereo not shown) [Compound 21, 2-{4-[(2-Chloro-phenyl)-phenyl-methyl]-piperazin-1-yl}-N,N-diphenyl-acetamide]", "values": [{"measurement": "pIC50", "setting": "[1]; [3]", "result": 6.91}, {"measurement": "pIC50", "setting": "[1]; [4]", "result": 7.28}, {"measurement": "pIC50", "setting": "[2]; [5]", "result": 7.47}, {"measurement": "pIC50", "setting": "[2]; [6]", "result": 6.87}]}
{"smiles": "O=C(CN(c1ccccc1)c1ccccc1)N1CCN(C(c2ccccc2)c2ccc(Cl)cc2Cl)CC1", "note": "(stereo not shown) [Compound 3, 1-{4-[(2,4-Dichloro-phenyl)-phenyl-methyl]-piperazin-1-yl}-2-diphenylamino-ethanone]", "values": [{"measurement": "pIC50", "setting": "[1]; [3]", "result": 6.26}, {"measurement": "pIC50", "setting": "[1]; [4]", "result": 6.34}, {"measurement": "pIC50", "setting": "[2]; [5]", "result": 5.22}, {"measurement": "IC50 - 100 mV", "setting": "[2]; [7]", "result": "no effect"}]}
{"smiles": "O=C(CN(c1ccccc1)c1ccccc1)N1CCN(C(c2ccccc2)c2cccc(Cl)c2)CC1", "note": "(stereo not shown) [Compound 5, 1-{4-[(3-Chloro-phenyl)-phenyl-methyl]-piperazin-1-yl}-2-diphenylamino-ethanone]", "values": [{"measurement": "pIC50", "setting": "[1]; [3]", "result": 6.51}, {"measurement": "pIC50", "setting": "[1]; [4]", "result": 6.55}, {"measurement": "pIC50", "setting": "[2]; [5]", "result": 6.10}, {"measurement": "IC50 - 100 mV", "setting": "[2]; [7]", "result": "no effect"}]}
{"smiles": "O=C(CN1CCN(C(c2ccccc2)c2ccccc2)CC1)N(c1ccccc1)c1ccccc1", "note": "[Compound 16, 2-(4-Benzhydryl-piperazin-1-yl)-N,N-diphenyl-acetamide]", "values": [{"measurement": "pIC50", "setting": "[1]; [3]", "result": 6.54}, {"measurement": "pIC50", "setting": "[1]; [4]", "result": 6.59}, {"measurement": "pIC50", "setting": "[2]; [5]", "result": 5.89}, {"measurement": "IC50 - 100 mV", "setting": "[2]; [7]", "result": "no effect"}]}
{"smiles": "Cc1ccc(C(c2ccccc2)N2CCN(C(=O)CN(c3ccccc3)c3ccccc3)CC2)c(C)c1", "note": "(stereo not shown) [Compound 2, 1-{4-[(2,4-Dimethyl-phenyl)-phenyl-methyl]-piperazin-1-yl}-2-diphenylamino-ethanone]", "values": [{"measurement": "pIC50", "setting": "[1]; [3]", "result": 6.54}, {"measurement": "pIC50", "setting": "[1]; [4]", "result": 6.59}, {"measurement": "pIC50", "setting": "[2]; [5]", "result": 6.35}, {"measurement": "pIC50", "setting": "[2]; [6]", "result": 5.70}]}
{"smiles": "O=C(CN(c1ccccc1)c1ccccc1)N1CCN(C(c2ccccc2)c2ccccc2Cl)CC1", "note": "(stereo not shown) [Compound 6, 1-{4-[(2-Chloro-phenyl)-phenyl-methyl]-piperazin-1-yl}-2-diphenylamino-ethanone]", "values": [{"measurement": "pIC50", "setting": "[1]; [3]", "result": 6.48}, {"measurement": "pIC50", "setting": "[1]; [4]", "result": 6.49}, {"measurement": "pIC50", "setting": "[2]; [5]", "result": 5.92}, {"measurement": "IC50 - 100 mV", "setting": "[2]; [7]", "result": "no effect"}]}
{"smiles": "CN(C)CCCN1CCN(CC(=O)N(c2ccccc2)c2ccccc2)CC1", "note": "[Compound 26, 2-[4-(3-Dimethylamino-propyl)-piperazin-1-yl]-N,N-diphenyl-acetamide]", "values": [{"measurement": "pIC50", "setting": "[1]; [3]", "result": 6.46}, {"measurement": "pIC50", "setting": "[1]; [4]", "result": 6.47}, {"measurement": "pIC50", "setting": "[2]; [5]", "result": 6.00}, {"measurement": "IC50 - 100 mV", "setting": "[2]; [7]", "result": "no effect"}]}
{"smiles": "Cc1ccc(C(c2ccccc2)N2CCN(CC(=O)N(c3ccccc3)c3ccccc3)CC2)c(C)c1", "note": "(stereo not shown) [Compound 18, 2-{4-[(2,4-Dimethyl-phenyl)-phenyl-methyl]-piperazin-1-yl}-N,N-diphenyl-acetamide]", "values": [{"measurement": "pIC50", "setting": "[1]; [3]", "result": 5.75}, {"measurement": "pIC50", "setting": "[1]; [4]", "result": 5.90}, {"measurement": "pIC50", "setting": "[2]; [5]", "result": 7.08}, {"measurement": "pIC50", "setting": "[2]; [6]", "result": 6.64}]}
